Consider one molecule from patent US7750184B2, “Vitamin D receptor modulators” (Eli Lilly and Company, priority 2003, dated 2010).

Holding throughout (format): cell-based
One assay has as its target T1, RXR-VDR heterodimer (Homo sapiens, UniProt P11473).
T1 construct: Add the Gal4-RXR-DEF and VP16-VDR-LBD; expressed in transfected cells; host or cells: SaOS-2 cells
T1 sequence (P11473 127-423 limits assumed): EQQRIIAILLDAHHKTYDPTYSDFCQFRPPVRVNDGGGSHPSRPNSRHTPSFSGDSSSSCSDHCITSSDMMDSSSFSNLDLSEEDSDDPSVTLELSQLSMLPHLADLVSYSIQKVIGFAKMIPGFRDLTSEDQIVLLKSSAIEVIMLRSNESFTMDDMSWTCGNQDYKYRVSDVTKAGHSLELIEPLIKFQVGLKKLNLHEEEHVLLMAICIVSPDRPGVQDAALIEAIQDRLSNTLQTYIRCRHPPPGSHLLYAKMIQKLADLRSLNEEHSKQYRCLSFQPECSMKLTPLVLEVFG
T1 sequence (P19793 201-462 partner limits assumed): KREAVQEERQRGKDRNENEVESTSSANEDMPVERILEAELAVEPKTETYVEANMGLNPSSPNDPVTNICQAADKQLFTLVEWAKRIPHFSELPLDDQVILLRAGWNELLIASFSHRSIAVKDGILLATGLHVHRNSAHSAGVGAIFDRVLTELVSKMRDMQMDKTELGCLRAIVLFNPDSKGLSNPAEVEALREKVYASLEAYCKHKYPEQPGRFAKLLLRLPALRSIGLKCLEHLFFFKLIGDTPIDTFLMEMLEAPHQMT
Kind of assay: RXR-VDR heterodimerization assay (SaOS-2 cells). The following applies: Gal4-RXR-DEF / VP16-VDR-LBD, luciferase reporter. The source says: 1. The RXR-VDR heterodimer Assay:
This assay provides the VDR activity of a test compound.
(1) Materials and Method for RXR-VDR Heterodimerization Assay:
Luciferase Assay Reagent: • Use Steady-Glo Luciferase Reagent from Promega (Cat # E2550) Consists of:
Add plain DMEM media to tubes for mixing the DNA
Add the Reporter gene pFR-LUC
Add the Gal4-RXR-DEF and VP16-VDR-LBD
Make a stock solution of the compounds in DMSO
Further dilute in D-MEM (Low Glucose—With out Phenol Red)
Read the plates after drug treatment
Add Steady-Glo Luciferase Reagent mixture/wells
Count each well using a Luminescence counter, Top Count NXT by Packard
(In a reporter assay the amount or activity of a reporter protein is the signal.)

For the next assay, the target named is T2, VDR (Homo sapiens, UniProt P11473).
T2 construct: the receptor expression vector pGal4-VDR-LBD (10 ng); expressed in transfected cells; host or cells: Caco-2 cells
T2 sequence (P11473 127-423 limits assumed): T1 sequence (P11473 127-423 limits assumed)
As to the kind of experiment: Caco-2 cell co-transfection assay (VDR CTF). The following applies: Caco-2 cells, pGal4-VDR-LBD co-transfection, luciferase reporter.

The subject of a further assay is rat osteocalcin promoter. Kind of assay: OCN (osteocalcin) promoter assay. The following applies: RG-15 (ROS 17/2.8) cells, 48 hr treatment, luciferase reporter.
The next assay concerns KERtr cells. Kind of assay: Keratinocyte proliferation assay. The following applies: Homo sapiens, 72 hr, BrdU incorporation, read-out: Kera. Prolif. IC50. As for the experimental part:
5. The Keratinocte Proliferation Assay
This Assay is indicative for the treatment of psoriasis.
(5) The Keratinocyte Proliferation Assay:
KERtr cells (Human skin keratinocyte transformed with a retrovirus vector, obtained from ATCC) were plated in 96-well flat-bottomed plates (3000 cells/well) in 100 µl keratinocyte serum free medium supplemented with bovine pituitary extract in the absence of EGF (Life Technologies, Rockville, Md.) and incubated at 37° C. for two days. The cells were treated with various concentrations of VDR ligands (ten-fold serial dilution from 10,000 nM to 0.1 nM in triplicate), dissolved in 100 μl keratinocyte serum free medium supplemented with bovine pituitary extract in the absence of EGF and incubated at 37° C. for 72 hr. BrdU (5-bromo-2′-deoxyuridine) incorporation was analyzed as a measure of DNA replication (Cell proliferation ELISA kit, Roche Diagnostics, Indianapolis, Ind.) and absorbance was measured at 405 nm. Potency values (IC50) values were determined as the concentration (nM) of compound that elicited a half-maximal response.
(Incorporation of labelled thymidine or its analogues reports DNA synthesis.)

Assay [1] has as its system IL-10 production in PBMCs. Kind of assay: IL-10 induction assay. As to conditions: PBMC; TPA/PHA stimulated human PBMCs, IL-10 immunoassay. From the text:
6. The IL-10 induction Assay
This is an in vitro efficacy assay for psoriasis, abscess and adhesion. Psoriasis involves both keratinocytes and immune cells. IL-10 is a unique cytokine because it is anti-inflammatory and immunosuppressive. This assay tells us whether a VDRM is able to function as an agonist in PBMCs (primary blood mononuclear cells) or not. A lower EC50 value is desirable in this assay since a compound with a lower EC50 value will be a better agonist in PBMCs.
(6) Materials and Method for Human IL-10 Induction Assay:
Isolation of Peripheral Blood Mononuclear Cells (PBMCs):
• A. Collect 50 ml of human blood and dilute with media, RPMI-1640. • B. Prepare sterile tubes with ficol. • C. Add diluted blood to tubes. • D. Centrifuge. • E. Discard the top layer and collect the cells from middle layer. • F. Divide all cells into four tubes and add media. • G. Centrifuge. • H. Aspirate off media and resuspend. • I. Collect all cells • J. Centrifuge. at 1200 rpm for 10 minutes. • K. Resuspend in RPMI-1640 with 2% FBS and count cells • Stimulation of PBMC: • L. Prepare TPA in DMSO. • M. Dissolve PHA in water. • N. Plate TPA/PHA treated PBMCs in well plates. • O. Incubate.
Treatment: • P. Prepare all compound dilutions in plain RPMI-1640 media. • Q. Add diluted compound. • R. Incubate. […]

On to `CCC(CC)(c1ccc(OS(C)(=O)=O)cc1)c1ccc(OCC(O)C(C)(C)C)c(Cl)c1` (single isomer, unassigned) [Ex. 45, 51B, 3′-[3-chloro-4-(2-hydroxy-3,3-dimethylbutoxy)phenyl]-3′-(4-methylsulfonyloxyphenyl)pentane], for which the EC50 – broadly, the concentration that produces a half-maximal response – is 24 nM at RXR-VDR heterodimer, 353 nM at VDR and 13 nM with rat osteocalcin promoter. Moreover, the IC50 (commonly the concentration at which inhibition is half-maximal) in the assay on KERtr cells was 27 nM; in assay [1], 39.5 nM.
